# In PubChem BioAssay AID743254 (The Scripps Research Institute Molecular Screening Center, 2014):
# Activity calls are given as the source filed them.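 The calls were made as follows: active = half-inhibition concentration IC50 of 10 µM or lower; inactive = IC50 above 10 µM.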
# Target: Disintegrin and metalloproteinase domain-containing protein 10 (Homo sapiens) (UniProt O14672)
# Assay: potency of ADAM10 substrate cleavage blockers – biochemical, QFRET, dose response (AID 743254)
# Settings: ADAM10 QFRET peptide cleavage, EDANS fluorescence, 3 h
# Chain of Disintegrin and metalloproteinase domain-containing protein 10 (Homo sapiens) (O14672 214-748 limits assumed): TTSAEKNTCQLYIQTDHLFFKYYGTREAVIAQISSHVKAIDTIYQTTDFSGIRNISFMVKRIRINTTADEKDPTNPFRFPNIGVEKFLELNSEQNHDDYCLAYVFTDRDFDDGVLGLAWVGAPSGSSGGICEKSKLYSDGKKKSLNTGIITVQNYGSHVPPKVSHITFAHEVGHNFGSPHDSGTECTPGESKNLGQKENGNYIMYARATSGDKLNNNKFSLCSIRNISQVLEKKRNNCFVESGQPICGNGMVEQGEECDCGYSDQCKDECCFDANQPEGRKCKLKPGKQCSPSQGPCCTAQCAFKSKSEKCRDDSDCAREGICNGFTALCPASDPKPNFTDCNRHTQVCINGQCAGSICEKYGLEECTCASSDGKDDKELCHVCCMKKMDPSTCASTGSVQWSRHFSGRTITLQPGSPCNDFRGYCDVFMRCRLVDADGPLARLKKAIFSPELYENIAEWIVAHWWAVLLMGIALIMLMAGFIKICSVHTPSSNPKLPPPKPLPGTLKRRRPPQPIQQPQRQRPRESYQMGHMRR
row,SMILES,IC50
1,O=C(NNC(=O)c1cc(-c2ccccc2)nc2ccccc12)Nc1cccc(Cl)c1,> 69.5 µM (inactive)
2,O=C1CC(N(CCc2ccccc2)C(=S)Nc2cc(Cl)ccc2Cl)C(=O)N1c1c(Cl)cccc1Cl (stereo not given),> 69.5 µM (inactive)
3,Cc1cc(C)c(CSc2ncc(-c3ccc([N+](=O)[O-])cc3)[nH]2)c(C)c1,inactive
4,O=C(NNC(=O)c1cc(-c2ccc(Cl)cc2)nc2ccccc12)c1csc(N2CCOCC2)n1,> 69.5 µM (inactive)
5,O=C(NNc1ccccc1Br)C(O)(c1cccc(C(F)(F)F)c1)c1cccc(C(F)(F)F)c1,inactive
6,O=C(Nc1ccc(N2CCCC2)c(S(=O)(=O)Nc2cccc(C(F)(F)F)c2)c1)c1cccs1,> 69.5 µM (inactive)
7,C(=C\c1ccccc1)/C=N/Nc1nc2ccccc2s1,> 69.5 µM (inactive)
8,COc1ccc(C(Nc2cc(C)ccn2)c2ccc3ccc(C)nc3c2O)cc1 (stereo not given),7.23 µM
9,Fc1c(F)c(C(F)(F)F)c(F)c(F)c1N/N=C\c1cccs1,> 69.5 µM (inactive)
10,COc1cc(/C=N/O)cc(Br)c1OCc1ccc(Cl)cc1,> 69.5 µM (inactive)
11,O=C1OCCN1C(=O)[C@H]1[C@H](c2ccc([N+](=O)[O-])cc2)C(c2ccc(F)cc2)=NN1c1ccc(Br)cc1,inactive
12,COC(=O)c1ccc(N2CCC(c3cc(-c4ccc(OC)cc4)n[nH]3)CC2)c([N+](=O)[O-])c1,> 69.5 µM (inactive)
13,COc1ccc(CCN2C(=O)c3[nH]nc(-c4ccccc4O)c3C2c2cccc(Cl)c2)cc1 (stereo not given),inactive
14,Oc1ccc(Cl)cc1-c1cc(-c2cccc(Br)c2)n[nH]1,> 69.5 µM (inactive)
15,O=[N+]([O-])c1ccc(S(=O)(=O)Nc2ccc(-c3csc(-c4ccccc4)n3)cc2)cc1,inactive
16,CCCN(CC(=O)Nc1cc(Cl)cc(Cl)c1)CC(=O)Nc1ccc(F)c(F)c1F,inactive
17,O=C(OCc1csc(Nc2ccccc2)n1)c1ccc(Cl)cc1,inactive
18,O=C1OCCN1C(=O)[C@H]1[C@H](c2ccc([N+](=O)[O-])cc2)C(c2cccc(Cl)c2)=NN1c1ccc(Br)cc1,inactive

row,SMILES,IC50
1,COc1ccc(S(=O)(=O)Nc2cc3c4c(oc3c3ccccc23)CC(C)(C)CC4=O)cc1,> 69.5 µM (inactive)
2,N#Cc1c(Cl)nc(N/N=C/c2ccccc2)c(Cl)c1Cl,> 69.5 µM (inactive)
3,COc1ccc(-c2ccc(-c3noc(-c4cccc(OC)c4)n3)c(OC)n2)cc1,> 69.5 µM (inactive)
4,CCOC(=O)c1c(CSc2ccc(C)cc2)oc2ccc(O)cc12,inactive
5,CCc1ccc(NC(=O)c2ccc(F)c(S(=O)(=O)NCC3COc4ccccc4O3)c2)cc1 (stereo not given),inactive
6,O=[N+]([O-])c1cc(S(=O)(=O)Nc2ccccc2)ccc1N1CCN(c2ccccc2)CC1,inactive
7,COc1ccc(-c2cn[nH]c2-c2ccc(OCc3ccccc3)cc2O)cc1,9.61 µM
8,C=C(C)COc1ccc(-c2[nH]ncc2Oc2ccc(OC)cc2)c(O)c1,5.44 µM
9,C=C(C)COc1ccc(-c2[nH]ncc2Oc2cccc(OC)c2)c(O)c1,7.45 µM
10,O=[N+]([O-])c1ccc(-c2nc(-c3cccs3)c(-c3cccs3)[nH]2)cc1,> 69.5 µM (inactive)
11,O=C(Nc1cccc(S(=O)(=O)Nc2ccc(Cl)cc2)c1)c1cc2c(s1)CCCC2,> 69.5 µM (inactive)
12,Cc1ccc(NS(=O)(=O)c2ccc(Cl)c(NC(=S)NC(=O)C3CCCCC3)c2)cc1Cl,inactive
13,O=C(Nc1ccc(OCC(F)(F)C(F)F)c(C(F)(F)F)c1)c1ccc(Cl)cc1,7.43 µM
14,O=[N+]([O-])c1cccnc1N1CCC(c2cc(-c3ccc(Cl)cc3)n[nH]2)CC1,8.8 µM
15,O=[N+]([O-])c1ccc(O)c(/C=N/Nc2ccccn2)c1,inactive
16,Cc1cccc(C)c1OCC(O)Cn1c2ccccc2c2ccccc21 (stereo not given),> 69.5 µM (inactive)
17,CC(=O)c1ccc(N2CCC(c3cc(-c4ccc(Cl)cc4Cl)n[nH]3)CC2)c([N+](=O)[O-])c1,inactive
